≈ marks a conversion by molar mass, not a printed value. Like-named read-outs stand apart in the source and are kept apart here.
How the values were obtained:
PAK1 = PAK1 (Homo sapiens, UniProt Q13153); assay: PAK1 IC50 determination, Z'-LYTE kinase assay; type: biochemical; details: [ATP]=10×Km; [PAK1]=1 ng; read-out: IC50 against PAK1
Experimental: Protocol for determining IC50 Values for test compounds at [ATP]=10×Km; [PAK1]=1 ng
Add 2 ml 5× Kinase Buffer to 8 ml water to prepare […] of Kinase Buffer A.
• Thaw the concentrated stock of test compound at room temperature. • 2.1. Add 10 μl of 100% DMSO to row A, columns 2-11 (wells A2-A11) in a 96-well assay plate (non-binding surface). To well A1, add 15 μl of the concentrated stock of test compound. This will be the highest concentration of test compound in a 10-point titration curve. Use a concentration that is 100× the final desired 1× concentration per 10 μl kinase reaction. For example, if the final 1× concentration of 100 μM is desired for the highest concentration of test compound in the 10 point titration curve, add 15 μl of 10 mM test compound to well A1. • 2.2. Titrate the 100× test compound three-fold across the assay plate from well A1 to well A10. To perform this threefold titration, transfer 5 μl of the 100× test compound from well A1 to the 10 μl of 100% DMSO in well A2. Repeat for wells A2-A10. Discard the final 5 μl from well A10 so that all wells contain 10 μl. […] This completes the 10-point three-fold titration of test compound at 100× concentration. • 2.3. Transfer a 2 μl aliquot of the 100× test compound titration series from each well in row A of the 96-well assay plate (wells A1-A12) to row B (wells B1-B12). Add 48 μl of complete kinase reaction buffer to each well in row B to dilute the 100× three-fold titration series of test compound to 4× (the DMSO will also be diluted, to 4%). • 2.4. Transfer 2.5 μl of the 4× concentrated three-fold titration series of test compound from row B of the 96-well assay plates to quadruplicate wells of a 384-well assay plate. Each well in columns 21-24 should contain 2.5 μl of 4% DMSO (no compound) in complete kinase reaction buffer. This 2.5 μl addition of 4× test compound in 4% DMSO produces a 1× concentration of test compound in 1% DMSO for a 10 μl kinase reaction. • 2.5. Dispense 2.5 μl of complete kinase reaction buffer to each well in columns 23-24 of the 384-well assay plate.
• 1. Prepare 500 μl of 4 μM Z′-LYTE® Phospho-peptide by adding 2 μl of 1 mM Z′-LYTE® Phospho-peptide to 498 μl of complete kinase reaction buffer. • 2. Dispense 5 μl of the 4 μM Z′-LYTE® Phospho-peptide (2×) to each well in column 24 of the 384-well assay plate. • 3. Prepare 1000 μl of 4 μM Z′-LYTE® Peptide Substrate (2×)/2× kinase solution in complete kinase reaction buffer. If necessary, prepare an intermediate dilution of the kinase in complete kinase reaction buffer before preparing the Z′-LYTE™ Peptide Substrate (2×)/2× kinase solution. Use the appropriate 2× kinase concentration in the assay to phosphorylate 20-50% of the 0% inhibition controls at the ATP concentration desired. • 4. […]

[1] = Pharmacokinetic (PK) assessment in rats; type: in vivo
Caco-2 permeability = type: in vitro ADME; details: human
[2] = Microsomal stability, human (HLM); type: in vitro ADME; details: for half-life: read-out: t½
[3] = Microsomal stability, rat (RLM); type: in vitro ADME; details: for half-life: read-out: t½
Solubility assessment = type: physicochemical; details: kinetic from dmso stock
larger kinase panel = assay: Selectivity against a larger kinase panel; type: binding; details: in words
[4] = test system: other PAK family members (PAK2, PAK3, PAK4, PAK6, PAK7); assay: Inhibitory activity against other PAK family members; type: biochemical; details: in words
Experimental: A cell-based small molecule screening with 50,024 compounds was performed based on AML cell lines that grow in a PAK1-dependent manner, which has been previously described (Pandolfi et al., 2015). This was followed by single point PAK1 enzymatic activity screening against 360 compounds. Forty-six identified compounds that scored positive in this assay were subjected to enzymatic activity assays against other PAK family kinases including PAK2, PAK3, PAK4, PAK6, and PAK7. […] Those compounds were studied in further detail and key biochemical, pharmacokinetic, and structure-activity characteristics were determined.

[5] = Microsomal stability, mouse (MLM); type: in vitro ADME
[6] = liver microsomes, human microsomes
[7] = liver microsomes, rat microsomes
[8] = rat, plasma, PO, 10 mg/kg, mean

PAK1, sequence (Q13153 whole entry): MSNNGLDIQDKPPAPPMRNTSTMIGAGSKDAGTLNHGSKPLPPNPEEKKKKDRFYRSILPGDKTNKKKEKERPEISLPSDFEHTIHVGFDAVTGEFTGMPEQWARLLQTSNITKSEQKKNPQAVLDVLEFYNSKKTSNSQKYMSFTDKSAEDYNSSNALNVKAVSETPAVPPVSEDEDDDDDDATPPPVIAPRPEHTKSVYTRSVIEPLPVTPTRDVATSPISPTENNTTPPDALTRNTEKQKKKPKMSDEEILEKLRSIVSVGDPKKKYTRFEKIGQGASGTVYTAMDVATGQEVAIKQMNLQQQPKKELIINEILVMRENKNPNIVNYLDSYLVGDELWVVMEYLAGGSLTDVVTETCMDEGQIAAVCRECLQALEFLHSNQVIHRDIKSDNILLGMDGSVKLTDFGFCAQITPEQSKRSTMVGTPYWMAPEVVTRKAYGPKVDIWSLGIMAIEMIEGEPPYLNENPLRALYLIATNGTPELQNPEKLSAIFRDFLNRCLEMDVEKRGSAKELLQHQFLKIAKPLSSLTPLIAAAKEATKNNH

## CCn1c(=O)c(-c2ccc(-c3nc(C)c[nH]3)cc2Cl)cc2cnc(Nc3ccc(N4CCN(C)CC4)cc3)nc21 [Compound 42-0125_1]
PAK1
  IC50: < 30 nM
[1]; IV, 3 mg/kg
  Cl_obs: 4.97 mL/min/kg
  Vss_obs: 1.705 L/kg
[1]; PO 30 mg/kg versus IV 3 mg/kg
  Biovailability: 13.9%
[1]; rat, plasma, IV, 3 mg/kg
  Cmax: 3620 ng/mL
  Tmax: 0.17 h
[1]; rat, plasma, IV, 3 mg/kg, read-out: MRT MRT last
  MRT last: 5 h
[1]; rat, plasma, IV, 3 mg/kg, read-out: T ½ HL_Lambda_z (converted)
  half-life: 5 h
[1]; rat, plasma, PO, 30 mg/kg
  Cmax: 943 ng/mL
  Tmax: 8 h
[1]; rat, plasma, PO, 30 mg/kg, read-out: MRT MRT last
  MRT last: 10 h
[1]; rat, plasma, PO, 30 mg/kg, read-out: T ½ HL_Lambda_z (converted)
  half-life: 6.19 h
[1]; rat, plasma, iv, 3 mg/kg, IV, 3 mg/kg, read-out: AUC0→t AUC last
  AUC(0-t): 9750 ng·h/mL
[1]; rat, plasma, iv, 3 mg/kg, IV, 3 mg/kg, read-out: AUC0→∞ AUC INF_obs
  AUC(0-inf): 10100 ng·h/mL
[1]; rat, plasma, po, 30 mg/kg, PO, 30 mg/kg, read-out: AUC0→t AUC last
  AUC(0-t): 12600 ng·h/mL
[1]; rat, plasma, po, 30 mg/kg, PO, 30 mg/kg, read-out: AUC0→∞ AUC INF_obs
  AUC(0-inf): 14000 ng·h/mL
Caco-2 permeability; Caco-2, read-out: Assym index
  efflux ratio: 1
Caco-2 permeability; Caco-2, A-B
  Papp A→B: 3.9 ×10⁻⁶ cm/s
Caco-2 permeability; Caco-2, B-A
  Papp B→A: 3.8 ×10⁻⁶ cm/s
[2]; human, human liver microsomes, HLM
  microsomal CLint: 12 µL/min/mg
[2]; [6]
  half-life: 1.98 h
[3]; [7]
  half-life: 2.45 h
[3]; rat, rat liver microsomes, RLM
  microsomal CLint: 9 µL/min/mg
Solubility assessment; aqueous buffer, UB pH 2, 1% DMSO, read-out: Solubility in UB pH 2, 1% DMSO
  solubility: 59 µM (≈ 32.8 µg/mL)
Solubility assessment; aqueous buffer, UB pH 7, 1% DMSO, read-out: Solubility in UB pH 7, 1% DMSO
  solubility: 25 µM (≈ 13.9 µg/mL)
Solubility assessment; simulated gastric fluid, SGF, 1% DMSO, read-out: Solubility in SGF, 1% DMSO
  solubility: 58 µM (≈ 32.2 µg/mL)

## COc1cccc(-c2oncc2CN2CCN(C(C)=O)CC2)c1 [Compound T813-0242, 1-(4-((5-(3-Methoxyphenyl)isoxazol-4-yl)methyl)piperazin-1-yl)ethanone]
Larger kinase panel
  inhibition against a larger kinase panel: no significant inhibition
[4]
  inhibitory activity against any of the other PAK family members: no significant inhibitory activity
[5]; liver microsomes
  microsomal CLint: 44.4 µL/min/mg
[5]; liver microsomes, read-out: t½
  half-life: 1.04 h
[5]; mouse microsomes
  ER: 0.66
[5]; mouse microsomes, in mL/min/kg (unit assumed)
  CLh: 59.41
PAK1
  IC50: 900 nM
[1]; IV, 2 mg/kg, mean
  K el: 3.03 h⁻¹
[1]; PO 10 mg/kg versus IV 2 mg/kg
  Fabs, % (from AUCINF): 3.8%
  Fabs, % (from AUClast): 3.8%
[1]; PO, 10 mg/kg, mean
  K el: 1.05 h⁻¹
[1]; rat, plasma, IV, 2 mg/kg, mean
  C0: 3150 ng/mL
  Cmax: 2210 ng/mL
  MRT inf: 0.3 h
  Tmax: 0.08 h
  clearance: 36.7 mL/min/kg
[1]; rat, plasma, IV, 2 mg/kg, mean, read-out: MRTlast
  MRT last: 0.29 h
[1]; rat, plasma, IV, 2 mg/kg, mean, read-out: T ½ (converted)
  half-life: 0.23 h
[1]; [8]
  CL/F: 974 mL/min/kg
  Cmax: 202 ng/mL
  MRT inf: 0.84 h
  Tmax: 0.33 h
[1]; rat, plasma, PO, 10 mg/kg, mean, read-out: MRTlast
  MRT last: 0.75 h
[1]; rat, plasma, PO, 10 mg/kg, mean, read-out: T ½ (converted)
  half-life: 0.69 h
[1]; rat, plasma, PO, 10 mg/kg, mean, read-out: Vz/F
  Vd/F: 56.2 L/kg
[1]; rat, plasma, iv, 2 mg/kg, IV, 2 mg/kg, mean, read-out: AUCINF
  AUC(0-inf): 911 ng·h/mL
[1]; rat, plasma, iv, 2 mg/kg, IV, 2 mg/kg, mean, read-out: AUClast
  AUC(0-t): 909 ng·h/mL
[1]; rat, plasma, iv, 2 mg/kg, IV, 2 mg/kg, mean, read-out: Vss
  Vd: 0.65 L/kg
[1]; rat, plasma, iv, 2 mg/kg, IV, 2 mg/kg, mean, read-out: Vz
  Vd: 0.73 L/kg
[1]; rat, plasma, iv, 2 mg/kg, IV, dose 2 mg/kg, summary section, no unit printed there, read-out: AUCINF, IV plasma
  AUC(0-inf): 911 ng·h/mL
[1]; rat, plasma, iv, 2 mg/kg, IV, dose 2 mg/kg, summary section, no unit printed there, read-out: AUClast, IV plasma
  AUC(0-t): 909 ng·h/mL
[1]; rat, plasma, po, 10 mg/kg, PO, 10 mg/kg, mean, read-out: AUCINF
  AUC(0-inf): 175 ng·h/mL
[1]; rat, plasma, po, 10 mg/kg, PO, 10 mg/kg, mean, read-out: AUClast
  AUC(0-t): 171 ng·h/mL
[1]; rat, plasma, po, 10 mg/kg, PO, dose 10 mg/kg, summary section, no unit printed there, read-out: AUCINF, PO plasma
  AUC(0-inf): 175 ng·h/mL
[1]; rat, plasma, po, 10 mg/kg, PO, dose 10 mg/kg, summary section, no unit printed there, read-out: AUClast, PO plasma
  AUC(0-t): 171 ng·h/mL
[2]; human microsomes
  ER: 0.66
[2]; human microsomes, in mL/min/kg (unit assumed)
  CLh: 14.31
[2]; [6]
  microsomal CLint: 38.8 µL/min/mg
  half-life: 1.19 h
[3]; [7]
  microsomal CLint: 34 µL/min/mg
  half-life: 1.36 h
[3]; rat microsomes
  ER: 0.53
[3]; rat microsomes, in mL/min/kg (unit assumed)
  CLh: 28.97

Reference: US11065251B2, “PAK1 inhibitors and uses thereof” (Albert Einstein College of Medicine, priority 2016, dated 2021)
